Results from ChEMBL document CHEMBL1151371, “Plant Anticancer Agents. XI. 2,6-Dimethoxybenzoquinone as a Cytotoxic Constituent of Tibouchina pulchra” (1981).
In brackets after ≈: the same amount, converted by molar mass.

Test system: KB
Assay: Cytotoxicity against human KB cells
Assay type: functional
Conditions: read-out: ED50 (the source's name)

Compound `COC1=CC(=O)C=C(OC)C1=O` [2,6-DIMETHOXYQUINONE] has an EC50 of 3.1 µg/mL (≈ 18.4 µM).
